In ChEMBL document CHEMBL5131511, “Design of artificial α-helical peptides targeting both gp41 deep pocket and subpocket as potent HIV-1 fusion inhibitors” (Eur J Med Chem, 2022):
Where a SMILES comes first, the peptide text is derived from it. [ ]: non-standard residue; d: D form. The star is where a group is joined. O(cholesteryl) = CC(C)CCC[C@@H](C)[C@H]1CC[C@H]2[C@@H]3CC=C4C[C@@H](O*)CC[C@]4(C)[C@H]3CC[C@]12C; PEG4 = NCCOCCOCCOCCOCCC(=O)O

Assays:
[1] = tested on: Human immunodeficiency virus 1; experiment: Antiviral activity against HIV-1 IIIB assessed as inhibition of viral replication measured after 4 days by ELISA; assay type: functional, organism-based; conditions: Human immunodeficiency virus 1, IIIB, 96 h
[2] = tested on: Human immunodeficiency virus 1; experiment: Antiviral activity against HIV-1 IIIB (B, X4) assessed as inhibition of viral replication measured after 4 days by ELISA; assay type: functional, organism-based; conditions: Human immunodeficiency virus 1, IIIB (B, X4), 96 h
[3] = tested on: Human immunodeficiency virus 1; experiment: Antiviral activity against T20-sensitive HIV-1 D36G assessed as inhibition of viral replication measured after 4 days by ELISA; assay type: functional, organism-based
[4] = Selectivity ratio of EC50 for antiviral activity against T20-resistant HIV-1 V38E/N42S to EC50 for antiviral activity against T20-sensitive HIV-1 D36G; assay type: functional
[5] = tested on: Human immunodeficiency virus 1; experiment: Antiviral activity against T20-resistant HIV-1 V38A/N42T assessed as inhibition of viral replication measured after 4 days by ELISA; assay type: functional, organism-based
[6] = tested on: Human immunodeficiency virus 1; experiment: Antiviral activity against T20-resistant HIV-1 V38E/N42S assessed as inhibition of viral replication measured after 4 days by ELISA; assay type: functional, organism-based
[7] = Selectivity ratio of EC50 for antiviral activity against T20-resistant HIV-1 V38A/N42T to EC50 for antiviral activity against T20-sensitive HIV-1 D36G; assay type: functional

Row | Molecule | EC50 [1] | EC50 [2] | other results
1 | CC[C@H](C)[C@H](NC(=O)[C@H](CO)NC(=O)[C@H](CCC(=O)O)NC(=O)[C@H](CCC(=O)O)NC(=O)[C@H](CCC(N)=O)NC(C)=O)C(=O)N[C@@H](CCCCN)C(=O)N[C@@H](CCCCN)C(=O)N[C@@H](Cc1c[nH]c2ccccc12)C(=O)N[C@@H](CCC(=O)O)C(=O)N[C@@H](CCC(=O)O)C(=O)N[C@@H](Cc1c[nH]c2ccccc12)C(=O)N[C@@H](CO)C(=O)N[C@@H](CCCCN)C(=O)N[C@@H](CCCCN)C(=O)N[C@H](C(=O)N[C@@H](CCC(=O)O)C(=O)N[C@@H](CCC(=O)O)C(=O)N[C@@H](CC(C)C)C(=O)N[C@H](C(=O)N[C@@H](CCCCN)C(=O)N[C@@H](CCCCN)C(=O)N[C@@H](CO)C(=O)N[C@@H](CCC(=O)O)C(=O)N[C@@H](CCC(=O)O)C(=O)N[C@@H](CC(C)C)C(=O)N[C@H](C(=O)N[C@@H](CCCCN)C(=O)N[C@@H](CCCCN)C(=O)N[C@H](C(=O)N[C@@H](CCC(=O)O)C(=O)N[C@@H](CCC(=O)O)C(=O)N[C@@H](CCC(N)=O)C(=O)N[C@H](C(=O)N[C@@H](CCCCN)C(=O)N[C@@H](CCCCN)C(=O)N[C@@H](CS)C(=O)O[C@H]1CC[C@@]2(C)C(=CC[C@H]3[C@@H]4CC[C@H]([C@H](C)CCCC(C)C)[C@@]4(C)CC[C@@H]32)C1)[C@@H](C)CC)[C@@H](C)CC)[C@@H](C)CC)[C@@H](C)CC)[C@@H](C)CC (Ac-QEESIKKWEEWSKKIEELIKKSEELIKKIEEQIKKC-{O(cholesteryl)}) | > 500 nM | – | –
2 | Ac-QEESIKKWEEWDKKIEELIKKSEELIKKIEEQIKK-NH2 | – | 40.8 nM | –
3 | CC[C@H](C)[C@H](NC(=O)[C@H](CCC(N)=O)NC(=O)[C@H](CCC(=O)O)NC(=O)[C@H](CCC(=O)O)NC(=O)[C@@H](NC(=O)[C@H](CCCCN)NC(=O)[C@H](CCCCN)NC(=O)[C@@H](NC(=O)[C@H](CC(C)C)NC(=O)[C@H](CCC(=O)O)NC(=O)[C@H](CCC(=O)O)NC(=O)[C@H](CO)NC(=O)[C@H](CCCCN)NC(=O)[C@H](CCCCN)NC(=O)[C@@H](NC(=O)[C@H](CC(C)C)NC(=O)[C@H](CCC(=O)O)NC(=O)[C@H](CCC(=O)O)NC(=O)[C@@H](NC(=O)[C@H](CCCCN)NC(=O)[C@H](CCCCN)NC(=O)[C@H](CO)NC(=O)[C@H](Cc1c[nH]c2ccccc12)NC(=O)[C@H](CCC(=O)O)NC(=O)[C@H](CCC(=O)O)NC(=O)[C@H](Cc1c[nH]c2ccccc12)NC(=O)[C@H](CCCCN)NC(=O)[C@H](CCCCN)NC(=O)[C@@H](NC(=O)[C@H](CO)NC(=O)[C@H](CCC(=O)O)NC(=O)[C@H](CCC(=O)O)NC(=O)[C@H](CCC(N)=O)NC(C)=O)[C@@H](C)CC)[C@@H](C)CC)[C@@H](C)CC)[C@@H](C)CC)[C@@H](C)CC)C(=O)N[C@@H](CCCCN)C(=O)N[C@@H](CCCCN)C(=O)NCCOCCOCCOCCOCCC(=O)N[C@@H](CS)C(=O)O[C@H]1CC[C@@]2(C)C(=CC[C@H]3[C@@H]4CC[C@H]([C@H](C)CCCC(C)C)[C@@]4(C)CC[C@@H]32)C1 (Ac-QEESIKKWEEWSKKIEELIKKSEELIKKIEEQIKK[PEG4]C-{O(cholesteryl)}) | 44.4 nM | – | –
4 | Ac-QIWNNMTWEEWDKKIEELIKKSEELIKKIEEQIKK-NH2 | – | 36.3 nM | –
5 | Ac-WEEWDKKIEELIKKSEELIKKIEEQIKK-NH2 | – | > 10000 nM | –
6 | enfuvirtide | 8.26 nM | – | EC50 [3]: 41.1 nM; Ratio EC50 [4]: >24; EC50 [5]: 696 nM; EC50 [6]: > 1000 nM; Ratio EC50 [7]: 17
